The subject of this experiment is thromboxane B2 (TxB2) formation. Nature of the experiment: TxB2 generation in clotted whole blood of anaesthetized rabbits after intravenous dosing (method of Patrono et al., RIA). The note with it: Oryctolagus cuniculus, read-out: Percent Inhibition (%) of TxB2 formation; for inhibition at 1 mg/kg: 1.0 mg/kg i.v.; for inhibition at 0.3 mg/kg: 0.3 mg/kg i.v.; for inhibition at 0.1 mg/kg: 0.1 mg/kg i.v. The experiment is classed as in vivo, New Zealand white rabbits. How it is done: A number of in vivo tests in animals have also been described for evaluating potential anti-thrombotic drugs. For instance, the method of Patrono et al. is adapted to study the generation of TxB2 in whole blood samples removed from animals prior to and following drug treatment. Briefly, blood samples are taken into glass tubes and allowed to clot at 37° C. Serum is then separated by centrifugation and the samples stored at -40° C. until assayed for TxB2, when appropriate dilutions of ethanol deproteinized samples are thereafter analyzed by RIA. This technique is used in experiments with the test compounds to determine intravenous potency in anesthetized rabbits.
In this study, male New Zealand white rabbits (2.6-5.6 kg.) are anesthetized with sodium pentobarbitone (30 mg./kg., i.v.), followed by urethane (500 mg./kg., i.p.). After cannulation of the trachea, a carotid artery is catheterized for collection of the blood samples. The catheter is kept patent by slow infusion (0.2 ml./minutes) of sterile saline. Control carotid arterial blood samples are then taken at 30 minutes and at 5 minutes prior to administration of the test compound or vehicle (0.9% w./v. NaCl, 0.2 ml./kg.) via a marginal ear vein. Three groups of rabbits are employed in the test. The first group is given the test compound at 0.03 mg./kg., followed one hour later by a second dose at 0.1 mg./kg. Similarly, the second group is administered the test compound at 0.3 mg./kg., followed by a second dose (one hour later) at 1.0 mg./kg. The third group is treated with the vehicle alone, followed one hour later by a further vehicle injection. Carotid arterial blood samples are then taken at various time intervals after all doses. At each time point, a 1.0 ml. blood sample is taken into a glass tube, without anticoagulant, for TxB2 determination. For the latter determination, the blood sample is allowed to clot during a two-hour incubation period at 37° C. (which preliminary experiments had already shown to give a maximum TxB2 production) and the resulting serum obtained by centrifugation. The serum samples are then processed through the TxB2 -RIA after deproteinization with ethanol and dilution with Isogel Tris buffer.

Where two headings read alike, the source gives them in different places.

Usually inhibition stands for how much of the control response was suppressed. As to `Cc1c(Cn2ccnc2)c2ccccc2n1/C=C/C(=O)O` [Ex. 1, E-3-{1-[2-methyl-3-(1-imidazolyl-methyl)]indolyl}-acrylic acid], the inhibition at 1 mg/kg by setting is: (2 min, 2 min) 93%; (0.25 h, 15 min) 96%; (0.75 h, 45 min) 95%; (1.25 h, 75 min) 95%. The inhibition at 0.3 mg/kg stood at 93% (0.25 h, 15 min) and 93% (0.5 h, 30 min).
With `Cc1c(Cc2cccnc2)c2ccccc2n1/C=C/C(=O)O` [Ex. 2, E-3-{1-[2-methyl-3-(3-pyridylmethyl)]indolyl}-acrylic acid], the inhibition at 0.3 mg/kg (2 min, 2 min) is 95%; the inhibition at 0.3 mg/kg (0.25 h, 15 min) worked out at 98%; the inhibition at 0.3 mg/kg (0.75 h, 45 min) was determined as 93%; the inhibition at 0.3 mg/kg (1.25 h, 75 min) came out at 90%. The inhibition at 1 mg/kg runs as follows: (2 min, 2 min) 97%; (0.25 h, 15 min) 94%; (0.75 h, 45 min) 97%; (1.25 h, 75 min) 95%. For the same compound, the inhibition at 0.1 mg/kg (0.25 h, 15 min) amounted to 81% and the inhibition at 0.1 mg/kg (0.5 h, 30 min) turned out to be 82%.

Source of the values: patent US4451472A, “Inhibition of thromboxane synthetase with 3-(heteroalkyl)-indolyl-acrylic acid derivatives” (Pfizer Inc., priority 1981, dated 1984).
